From ChEMBL document CHEMBL1153064, “From lead to preclinical candidate: optimization of beta-homophenylalanine based inhibitors of dipeptidyl peptidase IV” (Bioorg Med Chem Lett, 2009)

Test: in vitro
Settings: human

| half-life at 0.75 h, 3 µM (microsomes) | half-life at 0.75 h, 3 µM (liver microsomes) | SMILES |
| --- | --- | --- |
| 30 min |  | N[C@@H](CC(=O)N1CCC[C@H]1COCC1CC1)Cc1cc(F)c(F)cc1F |
|  | > 120 min | N[C@@H](CC(=O)N1CCC[C@H]1CNC(=O)CC(F)(F)F)Cc1cc(F)c(F)cc1F |
|  | 71 min | N[C@@H](CC(=O)N1CCC[C@H]1CNC(=O)C1CCCC1)Cc1cc(F)c(F)cc1F |
|  | 38 min | N[C@@H](CC(=O)N1CCC[C@H]1CNC(=O)C1CCC1)Cc1cc(F)c(F)cc1F |
